Measurements as given in ChEMBL document CHEMBL1123053, “Analogues of platelet activating factor. 3. Replacement of the phosphate moiety with a sulfonylbismethylene group” (1985).

Assays:
Assay type in all cases: functional
[1] = system: Rattus norvegicus; assay: Effect on mean arterial blood pressure in SHR rat at the dose of 10 mg/kg i.v.; settings: route intravenous
[2] = system: Rattus norvegicus; assay: Effect on mean arterial blood pressure in SHR rat at the dose of 0.3 mg/kg i.v.; settings: route intravenous
[3] = species on record: Oryctolagus cuniculus; assay: Compound did not aggregate rabbit platelet at concentration of 1.8E-5 M

Structure (SMILES) | Blood pressure [1] | Blood pressure [2] | Activity [3]
CCCCCCCCCCCCCCCCOCC(CCS(=O)(=O)CCC[N+](C)(C)C)OC(C)=O.[Cl-] (stereo not drawn) | 20 mmHg |  | 
CCCCCCCCCCCCCCCCOCC(COP(=O)([O-])OCC[N+](C)(C)C)OC(C)=O (stereo not drawn) [PLATELET ACTIVATING FACTOR] |  | 20 mmHg | Did not aggregate rabbit platelet at concentration of 1.8E-5 M
